In patent US4931435A, “Agent with an antidepressant activity” (Boehringer Ingelheim KG, priority 1987, dated 1990):

How the values were obtained:
[1] = system: ptosis induced by tetrabenazine; assay: Inhibition of ptosis induced by tetrabenazine in the mouse; assay type: in vivo; settings: Control without tetrabenazine = 100%
isolated chicks = assay: chick call test: distress call activation in isolated one day old chicks (antidepressant activity); assay type: in vivo; settings: Placebo = 100%
Description: The call frequency of isolated one day old chicks, which decreases in the course of the test, is used as an experimental behavioral model of manifestations of resignation in depression, The method has been validated by tests on numerous neurotropically active substances; it is distinguished by its highly reproducible selectivity for antidepressants which are capable of reactivating the decreased call rate as a function of dosage. [distress call activation in isolated chicks; A new behavioral model for antidepressants, E. Lehr, Psychopharmacol. 89. […] Neurol. Psychiat.

[2] = system: Albino mice of the Chbb: NMRI strain; settings: group 1 (m and f), i.v., mouse, dosage 100
Description: Albino mice of the Chbb: NMRI strain
A 2% solution of 1-benzyl-4-aminomethyl-pyrrolidin-2-one fumarate and a 0.25% imipramin solution (pH=6.2) were used.

mice = settings: mouse, in vivo
Procedure: The test substances were dissolved in 0.9% NaCl solution.
**The animals in Group 2 were treated first with
1benzyl-4-aminomethyl-pyrrolidin-2-one FU and immediately afterwards
(about 10 to 15 seconds later) with imipramin.

Row | Compound | Inhibition of ptosis induced by tetrabenazine ([1]; 3 mg/kg p.o.) | Increase in call rate in the second hour (isolated chicks; 10 mg/kg i.p.) | Lethality dead/treated animals [2] | Inhibition of ptosis induced by tetrabenazine ([1]; 3.5 mg/kg p.o.) | effect of pretreatment on the toxic effect of imipramin (mice) | Increase in call rate in the second hour (isolated chicks; 5 mg/kg i.p.)
1 | CN(C)CCCN1c2ccccc2CCc2ccccc21 [Compound A, 10,11-dihydro-N,N-dimethyl-5H-dibenz[b,f]-azepin-5-propanamine, reference compound] | 12% | 131% | – | – | – | –
2 | NCC1CC(=O)N(Cc2ccccc2)C1 (stereo not drawn) [Compound B, 1-benzyl-4-aminomethyl-pyrrolidin-2-one] | – | – | 0/10 | 48% | toxic effect of imipramin is reduced | 284%
